Experimental data from the NIST ThermoML archive (doi:10.1021/acs.jced.8b00979).

Assay: xn = mol fraction of the nth substance listed
Conditions: 100 kPa, Liquid; for mass density: Vibrating tube method; for viscosity: Capillary tube (Ostwald / Ubbelohde) method

CCC(C)CO (stereo not given) [2-methyl-1-butanol] + CCCCCO
Conditions	mass density, 308.15 K [kg/m3]	mass density, 313.15 K [kg/m3]	mass density, 318.15 K [kg/m3]	mass density, 323.15 K [kg/m3]	mass density, 328.15 K [kg/m3]	viscosity, 313.15 K [mPa·s]	viscosity, 318.15 K [mPa·s]	viscosity, 323.15 K [mPa·s]	viscosity, 328.15 K [mPa·s]
x2 = 0	808.29	804.41	800.47	796.47	792.41	2.783	2.379	2.06	1.787
x2 = 0.1	807.82	803.95	800.02	796.04	792	2.717	2.329	2.016	1.753
x2 = 0.2	807.36	803.51	799.6	795.63	791.6	2.657	2.281	1.98	1.725
x2 = 0.3	806.92	803.07	799.18	795.22	791.22	2.59	2.232	1.942	1.697
x2 = 0.399	806.47	802.64	798.76	794.82	790.84	2.528	2.187	1.908	1.669
x2 = 0.5	806.03	802.21	798.34	794.42	790.46	2.468	2.141	1.877	1.645
x2 = 0.6	805.58	801.78	797.93	794.02	790.08	2.419	2.103	1.85	1.624
x2 = 0.699	805.15	801.35	797.52	793.63	789.7	2.365	2.07	1.823	1.609
x2 = 0.799	804.71	800.93	797.11	793.24	789.33	2.327	2.041	1.801	1.598
x2 = 0.899	804.28	800.51	796.7	792.85	788.96	2.323	2.028	1.791	1.594
